assay: gradient 5% acetonitrile 3 min, to 50% in 2 min, to 85% in 15 min, held 3 min, 100 µL/min; conditions: column: Zorbax Extend-C18 2.1 x 50 mm; eluents: water / acetonitrile, 0.1% formic acid
How it was run: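 Retention time was recorded from adduct peaks, which were picked computationally and each inspected manually. Pure standards ran in mixtures of ~100 molecules on HPLC coupled to a quadrupole time-of-flight mass spectrometer, in positive and negative ionization mode, through a Zorbax Extend-C18 column (2.1 × 50 mm, 1.8 μm) at 100 μL/min. Eluents were water and acetonitrile, each with 0.1% formic acid.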

Q: Which RP-LC retention time does the source give for COCCCNC(=O)C1c2ccccc2C(=O)N1Cc1ccccc1F (centres undefined) here?
A: 708 s

Q: Which RP-LC retention time does the source give for O=C(NC1CCc2nnc(C3CC3)n2CC1)c1cnco1 (centres undefined) here?
A: 537 s

Q: With c1ccc(CNc2nnc(-c3nc(C4CC4)no3)c3ccccc23)cc1 as the compound, how does the RP-LC retention time read?
A: 878 s

Q: For Cc1ccn2cc(-c3ccc(NC(=O)c4cccc(F)c4)cc3)nc2n1, which RP-LC retention time is on record?
A: 647 s

Q: Which RP-LC retention time does the source give for CN(C)C[C@@H]1CN(Cc2cccnc2)C[C@H]1NC(=O)C1(c2ccccc2)CC1 here?
A: 557 s

Q: With COc1ccccc1N1CCN(c2ncccc2-c2nc(-c3ccc(Cl)cc3)no2)CC1 as the compound, how does the RP-LC retention time read?
A: 1320 s

Q: For O=c1ccc(-c2ccc(F)cc2)nn1CCc1nc(-c2ccc(F)cc2)no1, which RP-LC retention time is on record?
A: 712 s

Q: With CC(C)(C)c1ccc(-c2nc(-c3ccc(S(=O)(=O)N4CCOCC4)cc3)no2)cc1 as the compound, how does the RP-LC retention time read?
A: 1400 s

Q: For O=C(CSc1ccc(N2CCCC(C(=O)NC3CC3)C2)nn1)NCc1cccc(C(F)(F)F)c1 (centres undefined), which RP-LC retention time is on record?
A: 678 s

Q: With O=C(Nc1ccc2c(c1)OCO2)N1CCC(N2CCN(Cc3ccc(F)cc3)C2=O)CC1 as the compound, how does the RP-LC retention time read?
A: 788 s

Q: Which RP-LC retention time does the source give for O=C(NCc1ccc(F)cc1F)C1=C2CCCN2c2ccc(F)cc2S1(=O)=O here?
A: 895 s

Q: For CCCn1c(=O)sc2cc(S(=O)(=O)N3CCC(C(=O)N(CC)CC)CC3)ccc21, which RP-LC retention time is on record?
A: 881 s

Q: For CN(C(=O)Cn1cnc2c(-c3ccccc3)csc2c1=O)c1ccc(F)cc1, which RP-LC retention time is on record?
A: 938 s

Q: Which RP-LC retention time does the source give for CCn1ccc(C(=O)N2CCc3cc(-c4csc(C5CC5)n4)ccc32)n1 here?
A: 1050 s

Q: With O=C(COc1ccccc1F)NCC1CN(c2ccc3c(c2)OCO3)C(=O)O1 (centres undefined) as the compound, how does the RP-LC retention time read?
A: 721 s

Q: For Cc1cccc(CCNC(=O)c2cc3n(n2)CC(C)(C(=O)NCc2ccccc2)N(C)C3=O)c1 (centres undefined), which RP-LC retention time is on record?
A: 814 s

Q: With Cc1ccc(-c2csc3c(=O)n(Cc4ccccn4)cnc23)cc1 as the compound, how does the RP-LC retention time read?
A: 889 s

Q: Which RP-LC retention time does the source give for CNC(=O)N1CCC(C2CCN(C(=O)CCCC(=O)O)C2)CC1 (centres undefined) here?
A: 572 s

Q: With COc1ccc(C)cc1S(=O)(=O)N1CCCC(c2nnc(COc3ccccc3)o2)C1 (centres undefined) as the compound, how does the RP-LC retention time read?
A: 891 s

Q: Which RP-LC retention time does the source give for CC(=O)N1CCC(n2c(C)nc(C(=O)N3CCCCC3)c2C)CC1 here?
A: 559 s

Q: Which RP-LC retention time does the source give for COc1nc2ccccc2nc1N1CCCC(C(=O)N2CCC(C)CC2)C1 (centres undefined) here?
A: 1110 s

Q: For O=C(c1cc(-c2ccncc2)n[nH]1)N1CCCC(C(=O)N2CCN(c3ccc(Cl)cc3)CC2)C1 (centres undefined), which RP-LC retention time is on record?
A: 661 s

Q: With COc1cc(-c2nc3ncccn3c2NCc2ccc(C)cc2)cc(OC)c1OC as the compound, how does the RP-LC retention time read?
A: 746 s

Q: Which RP-LC retention time does the source give for CSc1nnc(-c2nn(C)c3c2CN(C(=O)c2cccc(N(C)C)c2)CC3)n1C here?
A: 669 s

Q: Which RP-LC retention time does the source give for O=C(NC1CCCC1)c1nc(C(=O)N2CCN(c3ccccn3)CC2)cs1 here?
A: 595 s

Q: With CCC(C)NC(=O)N1CCN(c2cc(-c3cccc(OC)c3)ncn2)CC1 (centres undefined) as the compound, how does the RP-LC retention time read?
A: 634 s

Q: For CC1=C(c2ccc(C)c(C)c2)S(=O)(=O)N=C1N1CCCN(C(=O)c2ccccn2)CC1, which RP-LC retention time is on record?
A: 771 s

Q: For CC1CCCN(c2ccc(-c3csc(S(=O)(=O)N4CCCCC4)c3)nn2)C1 (centres undefined), which RP-LC retention time is on record?
A: 817 s

Q: With Cc1noc2nc(C)n(CC(=O)NC(C)CCc3ccccc3)c(=O)c12 (centres undefined) as the compound, how does the RP-LC retention time read?
A: 842 s

Q: With CCOC(=O)c1cc([N+](=O)[O-])sc1NC(=O)c1c(-c2ccccc2Cl)noc1C as the compound, how does the RP-LC retention time read?
A: 1220 s

Q: Which RP-LC retention time does the source give for CCc1ccc(NC(=O)Cn2c(=O)nc(N3CCCC(C)C3)c3ccccc32)cc1 (centres undefined) here?
A: 905 s

Q: Which RP-LC retention time does the source give for CC(=O)N1CCN(c2nc(CC(C)C)c3c(c2C#N)CC(C)(C)OC3)CC1 here?
A: 1060 s

Q: Which RP-LC retention time does the source give for CNc1nc(Nc2ccccc2Cl)nc2ccccc12 here?
A: 683 s

Q: With COc1cccc(-c2nc(C3CCN(S(=O)(=O)c4ccccc4F)CC3)no2)c1 as the compound, how does the RP-LC retention time read?
A: 1110 s

Q: For CCOC(=O)C1CCN(c2cc(-c3nc(-c4ccccc4)no3)c3ccccc3n2)CC1, which RP-LC retention time is on record?
A: 1370 s

Q: Which RP-LC retention time does the source give for O=C(Nc1ncc(Cc2cccc3ccccc23)s1)C1CC1 here?
A: 878 s

Q: With COc1ccc(NS(=O)(=O)c2ccc3c(c2)-c2oncc2CO3)c(OC)c1 as the compound, how does the RP-LC retention time read?
A: 852 s

Q: With Cc1noc(-c2ccnc(-n3ncc(C(=O)N4CCN(Cc5ccccc5)CC4)c3C)c2)n1 as the compound, how does the RP-LC retention time read?
A: 645 s

Q: For CCOC(=O)C1CCN(Cc2nc(-c3ccc(N4CCC(C)CC4)nc3)no2)CC1, which RP-LC retention time is on record?
A: 745 s

Q: For O=c1c2cc(-c3cccc4ccccc34)nn2ccn1Cc1nc(-c2ccccc2)no1, which RP-LC retention time is on record?
A: 1140 s

Q: With Cc1ccc(-c2nc3cnccn3c2Nc2c(C)cccc2C)cc1 as the compound, how does the RP-LC retention time read?
A: 947 s

Q: With CC(C)c1cc(C(C)C)n2nc(N)nc2n1 as the compound, how does the RP-LC retention time read?
A: 734 s

Q: For CNc1cccnc1OC1CCN(S(=O)(=O)c2ccc3c(c2)CCC3)C1 (centres undefined), which RP-LC retention time is on record?
A: 765 s

Q: Which RP-LC retention time does the source give for O=C1CN=C(c2ccc[nH]2)c2cc(Cl)ccc2N1 here?
A: 650 s
